Test results reported in article PMC8125762, “Molecular Regulation of Betulinic Acid on α3β4 Nicotinic Acetylcholine Receptors” (Molecules, 2021).
Where “and” joins values, the source holds several entries; their conditions need not be identical. Identical values can stand only once.

Assays:
[1] = target: T1, bovine α3β4 nicotinic acetylcholine receptors (Bos taurus, UniProt Q07263+Q8SPU6); assay: Two-electrode voltage clamp of ACh-induced inward current (IACh), wild-type α3β4 nAChRs expressed in Xenopus oocytes; assay type: cell-based; settings: for IC50: read-out: IC50 (half-maximal inhibitory response concentration)
T1 construct: host or cells: Xenopus laevis oocytes injected with in vitro transcribed mRNA
Experimental: (§1) Bovine cholinergic receptor nicotinic α3 subunit (gene accession number: 282702) and β4 subunit (gene accession number: 282181) were obtained from OriGene (Rockville, State Abbr. USA). All reagents, including ACh, MEC, and BA, were purchased from Sigma-Aldrich (St. Louis, MO, USA). All reagent stocks used in electrophysiological experiments were dissolved in dimethyl sulfoxide (DMSO) with the final concentration of DMSO not exceeding 0.01%. Frogs (Xenopus laevis) used in these experiments were obtained from the Korean Xenopus Resource Center for Research (KXRCR000001) and used according to appropriate standards.
(§2) All experiments were performed according to appropriate standards. After anesthetizing frogs on ice preoperatively, oocytes were extracted. Outer layers of oocytes were removed with OR-2 (Oocyte Ringer 2 solution) (82.5 mM NaCl, 2 mM KCl, 1 mM MgCl2, 5 mM HEPES, pH 7.4) containing collagenase II (2 mg/mL) in a room temperature shaker. Only stage V–VI oocytes were selected and used in this study. These oocytes were incubated in ND96 incubation buffer ([…] NaCl, 2 mM KCl, 1 mM MgCl2, 1.8 mM CaCl2, 5 mM HEPES, 2.5 mM sodium pyruvate, and […] gentamycin, pH 7.4) at 18 °C prior to mRNA injection.
(§3) Bovine α3β4 nAChRs cDNAs were restricted using appropriate restriction sites. Bovine α3β4 nAChRs mRNA was then subjected to in vitro transcription using a T7 polymerase kit (mMESSAGE mMACHINE T7 Transcription Kit; Thermo Fisher Scientific, Waltham, MA, USA) followed by injection into oocytes. A glass needle filled with mineral oil was used to install onto a nanoinjector (Drummond Scientific, Broomall, PA, USA). After incubating for 1–3 days, mRNA-injected oocytes were used for electrophysiology experiments.
Two-electrode voltage clamp (TEVC) experiments were performed using oocytes infused with α3β4 nAChR mRNA and cultured according to appropriate criteria. Each oocyte was penetrated with a microelectrode filled with 3M KCl at a resistance of 0.2 MΩ. All experiments were performed at room temperature using a two-electrode voltage clamp (OC-725C; Warner Instruments, Hamden, CT, USA) with a Digidata 1322A. The holding potential of the oocyte membrane potential was −80 mV. ACh and BA used in the experiment were diluted with ND96 buffer to appropriate concentrations. The perfusion rate was about 2 mL per minute. The induced-inward current was converted to digital data with the pClamp 10 software (Axon Instruments, Union City, CA, USA) for further analysis.
The current-voltage relationship was measured by changing the holding potential using a ramp protocol. Voltages ranging from −100 mV to +60 mV were applied to injected oocytes to measure the voltage ramp trace. The values were converted using Clampfit 9.0 (Molecular Devices, San Jose, CA, USA).
Concentration-response curve data were analyzed using SigmaPlot 10.0 software. Equation data were obtained using OriginPro 9.0 software (Origin, MA, USA) and fitted using the Hill equation y = Vmin + (Vmax − Vmin)*[x]^n/([IC50]^n + [x]^n), where Vmax and Vmin were the maximum and minimum current, respectively, x was the concentration of ACh or BA, n was the coefficient of interaction, and IC50 was the concentration of BA that produced half the maximum inhibitory effect. p-values < 0.05 were considered statistically significant.

[2] = target: T2, α3 (L257A) + Wild β4 nicotinic acetylcholine receptor (Bos taurus, UniProt Q07263+Q8SPU6, L278A); assay: Two-electrode voltage clamp, single-mutant α3 (L257A) + wild β4 nAChR in Xenopus oocytes; assay type: cell-based, bovine; settings: 100 μM ACh, holding potential −80 mV
T2 construct: host or cells: Xenopus laevis oocytes injected with mRNA; mutant made by site-directed mutagenesis
Experimental: as §1, §2, §3
(§4) Using α3 and β4 subunit cDNAs, point mutation was performed by PCR with Pfu DNA polymerase (Quikchange II Site-Directed Mutagenesis Kit). After designing a chimeric primer for mutation, optimal PCR conditions were determined. DpnI was added to remove methylated cDNA. […]
(§5) Concentration-response curve data were analyzed using SigmaPlot 10.0 software. […]

[3] = target: T3, Wild α3 + β4 (I263A) nicotinic acetylcholine receptor (Bos taurus, UniProt Q07263+Q8SPU6, I284A); assay: Two-electrode voltage clamp, single-mutant wild α3 + β4 (I263A) nAChR in Xenopus oocytes; assay type: cell-based, bovine; settings: 100 μM ACh, holding potential −80 mV
T3 construct: host or cells: Xenopus laevis oocytes injected with mRNA; mutant made by site-directed mutagenesis
Experimental: as §1, §2, §3, §4, §5

[4] = target: T4, α3 (L257A) + β4 (I263A) nicotinic acetylcholine receptor (Bos taurus, UniProt Q07263+Q8SPU6, I284A/L278A); assay: Two-electrode voltage clamp, double-mutant α3 (L257A) + β4 (I263A) nAChR in Xenopus oocytes; assay type: cell-based, bovine; settings: 100 μM ACh, holding potential −80 mV
T4 construct: host or cells: Xenopus laevis oocytes injected with mRNA; mutants made by site-directed mutagenesis
Experimental: as §1, §2, §3, §4, §5

[5] = wild-type, co-applied with 100 μM ACh, holding potential −80 mV

T1 sequence (Q07263 22-495): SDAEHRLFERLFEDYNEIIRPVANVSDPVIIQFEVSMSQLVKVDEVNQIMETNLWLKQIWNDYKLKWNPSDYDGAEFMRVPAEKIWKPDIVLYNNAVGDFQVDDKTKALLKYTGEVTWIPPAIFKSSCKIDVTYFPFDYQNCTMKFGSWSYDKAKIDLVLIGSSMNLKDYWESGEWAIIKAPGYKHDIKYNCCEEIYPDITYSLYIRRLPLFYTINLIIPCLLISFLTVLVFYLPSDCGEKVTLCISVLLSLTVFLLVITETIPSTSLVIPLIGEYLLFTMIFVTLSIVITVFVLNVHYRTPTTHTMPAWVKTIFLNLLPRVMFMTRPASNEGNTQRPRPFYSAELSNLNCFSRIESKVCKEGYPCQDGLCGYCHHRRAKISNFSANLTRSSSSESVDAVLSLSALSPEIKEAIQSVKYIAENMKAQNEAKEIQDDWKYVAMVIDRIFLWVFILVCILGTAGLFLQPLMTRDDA
T1 sequence (Q8SPU6 20-496): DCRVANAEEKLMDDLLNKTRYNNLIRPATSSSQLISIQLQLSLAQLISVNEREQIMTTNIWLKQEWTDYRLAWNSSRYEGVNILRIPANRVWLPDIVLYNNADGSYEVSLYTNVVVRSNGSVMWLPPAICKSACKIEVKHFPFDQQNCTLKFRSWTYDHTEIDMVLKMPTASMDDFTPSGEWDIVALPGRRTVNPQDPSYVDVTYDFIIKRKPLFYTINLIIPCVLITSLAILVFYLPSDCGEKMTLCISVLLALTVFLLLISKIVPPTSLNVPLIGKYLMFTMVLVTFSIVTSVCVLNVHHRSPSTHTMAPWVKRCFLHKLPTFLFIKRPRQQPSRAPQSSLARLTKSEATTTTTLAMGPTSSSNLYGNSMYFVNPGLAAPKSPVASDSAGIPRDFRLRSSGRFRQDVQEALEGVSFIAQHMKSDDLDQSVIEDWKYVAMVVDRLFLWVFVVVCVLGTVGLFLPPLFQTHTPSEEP
T3 sequence (Q07263 22-495, stated change not applied): as the sequence (Q07263 22-495) above
T3 sequence (Q8SPU6 20-496 I284A): as the sequence (Q8SPU6 20-496) above, with I265A counted along it
T4 sequence (Q07263 22-495 L278A): as the sequence (Q07263 22-495) above, with L257A counted along it
T4 sequence (Q8SPU6 20-496 I284A): as the sequence (Q8SPU6 20-496) above, with I265A counted along it
T2 sequence (Q07263 22-495 L278A): as the sequence (Q07263 22-495) above, with L257A counted along it
T2 sequence (Q8SPU6 20-496, stated change not applied): as the sequence (Q8SPU6 20-496) above

Row | inhibition at 10 µM ([1]; MEC 10 μM added at the same time as 100 μM ACh, holding potential −80 mV, read-out: inhibition of IACh (acetylcholine-induced inward peak current)) [%] | Hill coefficient (nH) [1, 5] | IC50 [1, 5] | decrease of efficacy of acetylcholine-induced inward current ([1]; 10 μM BA compared to 0 μM BA) | reversible potential (current-voltage relationship) ([1]; ACh 100 μM and BA co-administered, voltage ramp −100 to +60 mV) | reversibility of inhibition ([1]; ACh added again after BA co-administration) | inhibition percentage of nAChRs ([1]; BA 100 μM co-applied with 100 μM ACh, holding potential −80 mV) [%] | manner of inhibition versus ACh ([1]; different ACh concentrations with fixed BA 3 μM or 10 μM) | Imax [1, 5] | IC50 [2] [µM] | Imax [2] [%] | nH (Hill coefficient) [2] | IC50 [3] | Imax [3] [%] | nH (Hill coefficient) [3] | IC50 [4] [µM] | Imax [4] [%] | nH (Hill coefficient) [4] | SMILES | EC50 ([1]; in the absence of BA, holding potential −80 mV) [µM] | Emax ([1]; read-out: maximum efficacy of ACh-induced inward current (Emax)) [%]
1 | ~100 | 1.5 ± 0.1 | 1.5 µM |  |  |  |  |  |  |  |  |  |  |  |  |  |  |  | CNC1(C)C2CCC(C2)C1(C)C (stereo not shown) [MEC, mecamylamine, reference compound] |  | 
2 |  |  |  |  |  |  |  |  |  |  |  |  |  |  |  |  |  |  | CC(=O)OCC[N+](C)(C)C [ACh, acetylcholine] | 9.4 ± 1.25 | 101 ± 1.47
3 |  | 0.9 ± 0.1 | 12.9 µM and 12.8 µM | about 60% | about −10 mV | reversible | 89.2 ± 8.2 | non-competitive | 101.59 ± 5.98% and 101.5 ± 5.9% | 18.6 | 48.9 ± 2.7 | 1.6 ± 0.1 | ~13.4 µM and 13.4 µM | 33.1 ± 3.3 | 2.7 ± 1.0 | ~26.2 | 7.4 | 2 | C=C(C)[C@@H]1CC[C@]2(C(=O)O)CC[C@]3(C)[C@H](CC[C@@H]4[C@@]5(C)CC[C@H](O)C(C)(C)[C@@H]5CC[C@]43C)[C@@H]12 [BA, 3β, hydroxy-lup-20 (29) -en-28-oic acid] |  | 
